Data as given in US6441038B1, “Treatment of fatigue, head injury and stroke” (Laxdale Limited, priority 1999, dated 2002).

Columns and labels:
[1] = system: brain lesions / LC function; settings: animal studies, literature; cited from earlier work
[2] = system: post-stroke depression and fatigue; experiment: Case History No. 2: depression and fatigue after stroke; assay type: in vivo, human; settings: person; antidepressant alone

## CNCCCN1c2ccccc2CCc2ccccc21 [desipramine]
[1]
  effect on LC function and recovery of motor function after brain lesions: able to enhance

## CNCCC(Oc1ccc(C(F)(F)F)cc1)c1ccccc1 (stereo not shown) [fluoxetine]
[2]
  effect on post-stroke depression and fatigue: without much success

## CN(C)CCCN1c2ccccc2CCc2ccccc21 [imipramine]
[2]
  effect on post-stroke depression and fatigue: without much success

## CN(CCCN1c2ccccc2CCc2ccccc21)CC(=O)c1ccc(Cl)cc1 [lofepramine]
[2]
  effect on post-stroke depression and fatigue: without much success
